Values joined by “and” are separate entries in the source; they are usually repeats but may differ in a detail not shown here. Equal values may be shown once. A value given as a limit tells only on which side of the number the result lay.

The values below come from patent publication US8822440B2, “Inhibiting cyclin D polypeptides” (Mayo Foundation for Medical Education and Research, priority 2006, dated 2014).

Data set [1] has as its system human myeloma cell lines (HMCL). The data set is described as follows: HMCL viability / cytotoxicity (MTT, MTS). Type of data set: cell-based. The following applies: for IC50: Homo sapiens. As to the method:
Subsequent validation studies using selected compounds in human myeloma cell lines (HMCL) confirmed successful suppression of both cyclin D2 and D1 polypeptides. Each of these compounds was then shown to be cytotoxic to a genetically diverse and standardized panel of 14 HMCL in MTT assays: monensin (10-760 nM), camptothecin (5-700 nM), dihydrogambogic acid (250-800 nM), pristimerin (150-500 nM), and kinetin riboside (2.5-20 μM). Cell cycle analysis confirmed induction of G0/G1 phase arrest for most compounds, consistent with cyclin D inhibition.
Viability assay. The effects of screened compounds on cell viability was assessed by 3-(4,5-dimethyl[…])-5-(3-carboxymethoxyphenyl)-2-(4-sulfophenyl)-2-H-tetrazolium (MTS) assay according to the manufacture's instructions (Progmega, Madison, Wis.). MTS reagent (20 μL/well in 96 well plates) was added to cells, and these were then incubated at 37° C. for 4 hours. Absorbance at 490 nm was determined using a 96-well plate reader.

The next data set relates to cyclin D1, cyclin D2. The experiment in a line: Immunoblot of cyclin D proteins in purified patient CD138+ myeloma cells. Type of data set: cell-based, human. As for the experimental part:
Primary CD138^+ myeloma cell purification. Samples from patients diagnosed by International Myeloma Working Group criteria were included in this study. Bone marrow processing, including red cell lysis using ammonium chloride and CD138^+ plasma cell purification, was performed as described elsewhere (Abraham et al., Blood, 105, 794-803 (2005)). Research BM samples were obtained following informed consent at the time of routine procurement of clinical samples.
Immunoblotting. Cytosolic extracts were prepared from HMCL or purified patient CD138^+ myeloma cells following exposure to kinetin riboside. Cells were washed with cold PBS, resuspended in cold RIPA buffer (5×10^6 cells/100 μL) containing fresh protease and phosphatase inhibitors (Santa Cruz Biotechnology, Santa Cruz, Calif.) and incubated on ice for 30 minutes with gentle mixing. The supernatant was repossessed following high speed centrifugation, and protein concentrations were determined by the Bradford assay. Immunoblot assays were performed as described elsewhere (Krajewski et al., Anal. Biochem., 236:221-228 (1996)). Briefly, equal amounts of protein were separated by SDS-PAGE and transferred to a PVDF nitrocellulose membrane using a semi-dry apparatus. […]

The next data set has as its system H929 and U266 HMCL. The experiment in a line: Gene expression profiling (Affymetrix) of H929 and U266. Type of data set: cell-based, human. The conditions noted are these: 5 μM, 4 hours. As for the experimental part: Gene expression profiling. H929 and U266 HMCL were treated with kinetin riboside (5 μM), an unrelated cytotoxic pristimerin (0.5 μM), or DMSO vehicle for 4 hours under normal culture conditions. RNA was then isolated using Trizol and further purified by Qiagen column, according to the manufacturer's instructions and was assessed using a BioAnalyzer 2100 (Agilent Technologies, Palo Alto, Calif.). Microarray hybridization using Affymetrix Hg_U133—2+ chips (Affymetrix, Santa Clara, Calif.) was performed as described elsewhere (Abraham et al., Blood 105, 794-803 (2005)). Gene expression intensity values were log transformed, normalized by chip and by cell line to DMSO-control treated samples and analyzed using GeneSpring 7 (Agilent Technologies, Palo Alto, Calif.). Expression values were filtered by raw intensity level to exclude non-expressed probe-sets with raw expression within one log (10) of the minimum level observed. Only probe sets with sub-threshold intensities in all samples (treated and untreated) were excluded.
Analysis of CREM gene variant transcript expression. […]

In another data set the test system is My5 tumors. The data set is described as follows: My5 myeloma xenograft in nude mice. The following applies: for effect on My5 tumors: 85 mg/kg/dose. In kind it is in vivo. As for the experimental part:
FIG. 14. Kinetin riboside induces tumor growth arrest in My5 and 8226 myeloma tumor xenografts. (A) Matched pairs of nude mice bearing My5 tumors were treated intra-peritoneally (i.p.) with vehicle control (□) or with kinetin riboside (▪) at escalating dose-density from 100 mg/kg once daily to 85mg/kg 5×/daily, administered 5 days per week, commencing after mean tumor volume reached 135mm^3. Mean tumor volumes±SEM are shown from the time of xenografting (n=4/group). (B) Nude mice bearing 8226 tumors were treated with vehicle (□) or with kinetin riboside (▪) (n=4/group), commencing at 85 mg/kg QID (i.p. and s.c.) when the mean tumor volume exceeded 135 mm^3.
(§1) Female nude X-linked immune-deficient (BNX) mice purchased from NCI-Frederick were used for in vivo studies. Animals had access to food and water ad libitum and were handled in accordance with animal care and use guidelines. Eight-week-old mice were inoculated with My5 or 8226 (2×10^7) MM cells subcutaneously (s.c.) in the right flank. Kinetin riboside (pre-dissolved in DMSO at 500 mg/mL and stored at −20° C.) was formulated daily by dropwise dissolution to 3.7 mg/mL in pre-warmed (37° C.) 0.9% saline, 1% β2-hydroxypropylcyclodextrin (Sigma) solution and was administered 1×-5× daily at 85 mg/kg/dose. The first dose daily was given intraperitoneally and remaining doses were given s.c. with increasing dosing intervals (30, 60, 120, 180 minutes). Tumor volumes were measured using vernier calipers and calculated with the formula L×W×H×2/3. P-values were calculated by paired t-test (JMP 6.0, SAS; Cary, N.C.).

The subject of a further data set is 8226 tumors. The experiment in a line: 8226 myeloma xenograft in nude mice. In kind it is in vivo. As for the experimental part:
FIG. 14. Kinetin riboside induces tumor growth arrest in My5 and 8226 myeloma tumor xenografts. (A) Matched pairs of nude mice bearing My5 tumors were treated intra-peritoneally (i.p.) with vehicle control (□) or with kinetin riboside (▪) at escalating dose-density from 100 mg/kg once daily to 85mg/kg 5×/daily, administered 5 days per week, commencing after mean tumor volume reached 135mm^3. Mean tumor volumes±SEM are shown from the time of xenografting (n=4/group). […]
as §1

A short description of the next data set: Aqueous solubility. Type of data set: physicochemical.
The mark [2] stands for this setting: once daily, up to 100 mg/kg/day.

Turning to `OC[C@H]1O[C@@H](n2cnc3c(NCc4ccco4)ncnc32)[C@H](O)[C@@H]1O` [kinetin riboside, N6-Furfuryladenosine], the IC50 (usually the concentration needed to halve the response being measured) in data set [1] (48 h, 8 out of 12 HMCL) was < 1.7 µg/mL and < 5 µM; in data set [1] (48 h, 11/12 HMCL), < 5 µg/mL and < 15 µM; in data set [1] (JJN-3, JJN3), ~5 µM; in data set [1] (U-266, U266), > 20 µM. In addition, the “cytotoxic concentration across panel of 14 HMCL” value in data set [1] (human) is 2.5 to 20 µM. Also, the “patient samples with suppression of cyclin D1 or D2” value in the data set with cyclin D1, cyclin D2 (10 μM, 16 hours) is given as 4 of 5. In addition, the “cyclin D1 and D2 levels in sample E (plasma cell leukemia)” value in the data set on cyclin D1, cyclin D2 (patient E) is “unaffected”. In addition, the CREM isoform expression entry in the data set with H929 and U266 HMCL is recorded as “preferential induction of CREM isoforms”. Moreover, the “number of genes with 3-fold or greater change in expression in both H929 and U266” value in the data set with H929 and U266 HMCL is “approximately 35 genes”. In addition, the “effect on My5 tumors” value is listed as “tumor stasis” in the data set on My5 tumors (4× daily dosing) and “regression of tumors” with My5 tumors (5x daily dosing). In the data set on My5 tumors (setting [2]), the “effect on My5 tumor growth” value is “no effect”. In the data set on 8226 tumors (85 mg/kg 4× daily upfront, p<0.01), the “effect on 8226 tumors compared to vehicle-treated mice” value is recorded as “Statistically significant tumor growth inhibition”. For the same compound, the “effect on 8226 tumor growth” value in the data set on 8226 tumors (setting [2]) was “no effect”. Moreover, the aqueous solubility entry in “Aqueous solubility” is on record as “limited aqueous solubility at high concentration”.
